The text below walks through data of PMC10057391, “Novel ^68Ga-Labeled Pyridine-Based Fibroblast Activation Protein-Targeted Tracers with High Tumor-to-Background Contrast” (Pharmaceuticals, 2023).

Series [1] relates to FAP. The arrangement: method as in PMID 24617858. The note with it: cited from earlier work.
The target in series [2] is T1, recombinant human FAP (Homo sapiens, UniProt Q12884).
T1 construct: purchased Bio-legend, San Diego, CA, USA
T1 sequence (Q12884 1-760): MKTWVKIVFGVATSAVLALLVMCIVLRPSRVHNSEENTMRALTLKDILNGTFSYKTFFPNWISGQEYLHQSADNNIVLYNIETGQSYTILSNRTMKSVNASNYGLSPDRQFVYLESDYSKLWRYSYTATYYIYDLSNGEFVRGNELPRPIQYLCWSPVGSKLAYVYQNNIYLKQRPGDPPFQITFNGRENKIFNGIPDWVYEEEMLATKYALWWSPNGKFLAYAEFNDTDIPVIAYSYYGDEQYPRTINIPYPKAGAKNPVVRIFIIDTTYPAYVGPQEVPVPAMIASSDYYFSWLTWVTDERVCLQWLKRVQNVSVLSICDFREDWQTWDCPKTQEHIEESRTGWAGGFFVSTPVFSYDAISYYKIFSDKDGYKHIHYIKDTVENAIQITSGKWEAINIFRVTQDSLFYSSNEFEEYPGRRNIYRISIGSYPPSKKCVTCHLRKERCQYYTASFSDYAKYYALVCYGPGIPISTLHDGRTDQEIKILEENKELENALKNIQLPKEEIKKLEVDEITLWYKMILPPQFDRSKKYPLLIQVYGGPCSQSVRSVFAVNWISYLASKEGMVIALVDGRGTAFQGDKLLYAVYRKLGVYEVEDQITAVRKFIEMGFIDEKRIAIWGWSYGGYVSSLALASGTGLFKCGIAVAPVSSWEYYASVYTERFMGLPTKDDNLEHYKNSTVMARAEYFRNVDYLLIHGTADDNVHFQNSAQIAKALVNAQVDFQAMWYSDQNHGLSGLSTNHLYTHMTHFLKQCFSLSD
In words: In vitro FAP fluorescence enzyme inhibition assay (Suc-Gly-Pro-AMC substrate). To be noted: nonradioactive Ga-complexed standards. It is filed as biochemical. Here is the method: The binding affinities of Ga-AV02053 and Ga-AV02070 to human FAP were measured by an enzyme inhibition assay using Suc-Gly-Pro-AMC as the FAP substrate. The human FAP enzymatic activity on the substrate was inhibited by Ga-AV02053 and Ga-AV02070 in a dose dependent-manner (Figure 2).
The half maximal inhibitory concentration (IC50) values of the tested compounds for FAP were measured by in vitro enzymatic assay. The recombinant human FAP (Bio-legend, San Diego, CA, USA; 0.2 µg/mL, 50 µL) was added into costar 96-well plate. PBS and varied concentrations (0.2 pM to 2 µM) of tested nonradioactive Ga-complexed standards were added to each well (in duplicate) containing the recombinant human FAP. After being incubated for 30 min at 37 °C, 50 µL of Suc-Gly-Pro-AMC (2 µM, Bachem, Torrance, CA, USA) was added to each well. The fluorescent signals were acquired at 15, 30, 45, and 60 min using FlexStation 3 Multi-Mode Microplate Reader with excitation at 380 nm and emission at 460 nm. The IC50 (FAP) values were calculated using “nonlinear fit model” built-in model in GraphPad Prism 7.02 software.

Series [3] in a line: LogD7.4 measurement, shake flask method (n-octanol/PBS pH 7.4). It is filed as physicochemical. The note with it: n-octanol / phosphate-buffered saline pH 7.4, shake flask. The text has this: The lipophilicity of ^68Ga-labeled AV02053, AV02070, and FAPI-04 were estimated by measuring their LogD7.4 values using the shake flask method with n-octanol and phosphate-buffered saline (pH 7.4). The LogD7.4 values of [^68Ga]Ga-AV02053, [^68Ga]Ga-AV02070, and [^68Ga]Ga-FAPI-04 were −3.75 ± 0.16, −3.45 ± 0.10, and −1.02 ± 0.35, respectively. The values indicate that these ^68Ga-labeled tracers are hydrophilic, and the pyridine-based FAP-targeted tracers, [^68Ga]Ga-AV02053 and [^68Ga]Ga-AV02070, are more hydrophilic than [^68Ga]Ga-FAPI-04.
The lipophilicity characteristics of the ^68Ga-labeled pyridine-based FAPIs were determined by calculating the logarithm of the distribution coefficient (logD) in n-octanol/phosphate-buffered saline (PBS) of pH 7.4. Purified ^68Ga-labeled tracer (50 µL) was added into a test tube containing 1 mL n-octanol and 1 mL PBS. The mixture was vortexed, followed by centrifugation for 5 min at 3000 rpm. The two layers were then collected separately, and the radioactivity was counted using a Perkin Elmer (Waltham, MA, USA) Wizard2 2480 automatic gamma counter. After adjusting the counts to background and calculating the ratio (D) of the activity of the organic to that of the aqueous phase, the logD values were then calculated.

The subject of series [4] is HEK293T:hFAP tumor xenografts. In words: Ex vivo biodistribution and blocking study in HEK293T:hFAP tumor-bearing mice. To be noted: 1 h post-injection; for average kidney uptake: range given for the two tracers together; for tumor uptake: HEK293T:hFAP tumor; for average tumor uptake with co-injection of FAPI-04 / reduction of average tumor uptake by co-injection of FAPI-04: blocking, FAPI-04 250 µg co-injected. The method, then:
Biodistribution studies were conducted at 1 h post-injection with [^68Ga]Ga-AV02053 and [^68Ga]Ga-AV02070 in HEK293T:hFAP tumor-bearing mice, and the data are compared with those obtained previously using [^68Ga]Ga-FAPI-04 (Figure 4 and Figure 5 and Table S4). The results are consistent with the observations from their PET images. Except tumor and kidneys (1.35–1.85%ID/g), the average uptake values of [^68Ga]Ga-AV02053 and [^68Ga]Ga-AV02070 in all other collected organs/tissues were <0.6%ID/g. The tumor uptake values of [^68Ga]Ga-AV02053, [^68Ga]Ga-AV02070, and [^68Ga]Ga-FAPI-04 were 5.60 ± 1.12, 7.93 ± 1.88, and 12.5 ± 2.00%ID/g, respectively. […] This also led to higher tumor-to-blood, tumor-to-muscle and tumor-to-bone uptake ratios for [^68Ga]Ga-AV02053 (25.2 ± 1.97, 51.2 ± 19.8 and 38.1 ± 5.03, respectively) and [^68Ga]Ga-AV02070 (22.9 ± 10.1, 45.7 ± 9.88 and 34.3 ± 7.35, respectively) than [^68Ga]Ga-FAPI-04 (11.7 ± 2.04, 18.8 ± 4.09 and 3.93 ± 1.16, respectively) (p < 0.05).
(§1) Imaging and biodistribution studies were performed using male NOD.Cg-Rag1tm1Mom Il2rgtm1Wjl/SzJ (NRG) mice following previously published procedures. The experiments were conducted according to the guidelines established by the Canadian Council on Animal Care and approved by Animal Ethics Committee of the University of British Columbia. The mice were briefly sedated by inhalation of 2.5% isoflurane in oxygen, and HEK293T:hFAP cells (8.5 × 10^6 cells) were inoculated subcutaneously behind the left shoulder. When the tumor grew to 5–8 mm in ~3 weeks, the mice were used for PET/CT imaging and biodistribution studies.
For biodistribution studies, the mice were injected with the radiotracer (~2–4 MBq), as described above. For the blocking study, the mice were co-injected with 250 μg of FAPI-04. At 1 h post-injection, the mice were euthanized by CO2 inhalation. Blood was withdrawn by cardiac puncture, and organs/tissues of interest were collected, weighed, and counted using a Perkin Elmer (Waltham, MA, USA) Wizard2 2480 automatic gamma counter.

Series [5] has as its system HEK293T:hFAP tumor xenografts. In words: PET/CT imaging in mice bearing HEK293T:hFAP tumor xenografts. The note with it: PET imaging and biodistribution, 1 h post-injection. The class given is in vivo. The method, then: Both tracers were excreted primarily through the renal pathway and had very low background uptake in normal organs/tissues. Although [^68Ga]Ga-AV02053 and [^68Ga]Ga-AV02070 had lower tumor uptake than that of previously reported [^68Ga]Ga-FAPI-04, both of them had much lower background uptake, resulting in better tumor-to-background contrast than that of [^68Ga]Ga-FAPI-04 (Figure 3).
as §1
PET/CT imaging experiments were carried out using a Siemens (Knoxville, TN, USA) Inveon micro PET/CT scanner. Each tumor-bearing mouse was injected with ~4–6 MBq of ^68Ga-labeled tracer through a lateral caudal tail vein under 2.5% isoflurane in oxygen anesthesia, followed by recovery and then roamed freely in its cage during the uptake period. […]

Series [6] concerns HEK293T:hFAP tumor xenografts. Details: method as in PMID 36770755. The note with it: 1 h post-injection, cited from earlier work.

Like-named read-outs stand apart in the source and are kept apart here. Bounds are passed on as bounds.

As a reminder, the IC50 is the concentration needed to halve the response being measured. With `N#C[C@@H]1CCCN1C(=O)CNC(=O)c1ccnc2ccccc12` [(4-quinolinoyl)glycyl-(2S)-cyanopyrrolidine], the IC50 in series [1] was […].

For `N#C[C@@H]1CCCN1C(=O)CNC(=O)c1ccncc1` [(pyridine-4-carbonyl)glycyl-(2S)-cyanopyrrolidine], the concentration for half-maximal inhibition (IC50) in series [1] is 63 nM.

Consider `CN(CCN(C)c1ccc(C(=O)NCC(=O)N2CC(F)(F)C[C@H]2C#N)cn1)C(=O)CN1CCN(CC(=O)[O-])CCN(CC(=O)[O-])CCN(CC(=O)[O-])CC1.[Ga+3]` [Ga-AV02053], for which the half-inhibitory concentration (IC50) in series [2] was 187 ± 52 nM.

Turning to `CN(CCN(C)c1cc(C(=O)NCC(=O)N2CC(F)(F)C[C@H]2C#N)ccn1)C(=O)CN1CCN(CC(=O)[O-])CCN(CC(=O)[O-])CCN(CC(=O)[O-])CC1.[Ga+3]` [Ga-AV02070], the IC50 in series [2] worked out at 17.1 ± 4.6 nM.

In the case of `CN(CCN(C)c1ccc(C(=O)NCC(=O)N2CC(F)(F)C[C@H]2C#N)cn1)C(=O)CN1CCN(CC(=O)[O-])CCN(CC(=O)[O-])CCN(CC(=O)[O-])CC1.[68Ga+3]` [[^68Ga]Ga-AV02053], in series [3], the LogD7.4 is recorded as −3.75 ± 0.16. In series [4], the “average uptake in all other collected organs/tissues (except tumor and kidneys)” value was below 0.6 %ID/g; the “average uptake in other major organs with vs without co-injection of FAPI-04” value is “no significant difference”; the blood uptake is 0.22 ± 0.04 %ID/g; the bone uptake was 0.14 ± 0.02 %ID/g. Further, in series [4], the muscle uptake was 0.12 ± 0.05 %ID/g, the tumor-to-blood uptake ratio is 25.2 ± 1.97, the tumor-to-bone uptake ratio stood at 38.1 ± 5.03 and the tumor-to-muscle uptake ratio is listed as 51.2 ± 19.8. For the same compound, in series [4], the average kidney uptake was 1.35–1.85 %ID/g, the tumor uptake is recorded as 5.6 ± 1.12 %ID/g, the “average tumor uptake with co-injection of FAPI-04” value is 0.30 %ID/g and the “reduction of average tumor uptake by co-injection of FAPI-04” value is given as 95%. In series [5], the excretion pathway entry was “excreted mainly through the renal pathway”.

As for `CN(CCN(C)c1cc(C(=O)NCC(=O)N2CC(F)(F)C[C@H]2C#N)ccn1)C(=O)CN1CCN(CC(=O)[O-])CCN(CC(=O)[O-])CCN(CC(=O)[O-])CC1.[68Ga+3]` [[^68Ga]Ga-AV02070], the LogD7.4 in series [3] is −3.45 ± 0.10. Further, in series [4], the “average uptake in all other collected organs/tissues (except tumor and kidneys)” value is below 0.6 %ID/g; the “average uptake in other major organs with vs without co-injection of FAPI-04” value is on record as “no significant difference”; the blood uptake stood at 0.36 ± 0.05 %ID/g; the bone uptake is reported as 0.23 ± 0.06 %ID/g. Moreover, in series [4], the muscle uptake is given as 0.19 ± 0.10 %ID/g, the tumor-to-blood uptake ratio was 22.9 ± 10.1, the tumor-to-bone uptake ratio turned out to be 34.3 ± 7.35 and the tumor-to-muscle uptake ratio is reported as 45.7 ± 9.88. Also, in series [4], the average kidney uptake is reported as 1.35–1.85 %ID/g, the tumor uptake was 7.93 ± 1.88 %ID/g, the “average tumor uptake with co-injection of FAPI-04” value turned out to be 0.21 %ID/g and the “reduction of average tumor uptake by co-injection of FAPI-04” value is given as 97%. The excretion pathway result in series [5] is “excreted mainly through the renal pathway”.

The compound `N#C[C@@H]1CC(F)(F)CN1C(=O)CNC(=O)c1ccnc2ccc(OCCCN3CCN(C(=O)CN4CCN(CC(=O)[O-])CCN(CC(=O)[O-])CCN(CC(=O)[O-])CC4)CC3)cc12.[68Ga+3]` [[^68Ga]Ga-FAPI-04] registered a LogD7.4 in series [3] of −1.02 ± 0.35. In series [6] (obtained previously), the blood uptake is listed as 1.07 ± 0.08 %ID/g, the bone uptake is on record as 3.36 ± 1.09 %ID/g, the muscle uptake is recorded as 0.67 ± 0.05 %ID/g and the tumor-to-blood uptake ratio is on record as 11.7 ± 2.04. For the same compound, in series [6] (obtained previously), the tumor-to-bone uptake ratio is 3.93 ± 1.16 and the tumor-to-muscle uptake ratio is given as 18.8 ± 4.09. The tumor uptake in series [6] (HEK293T:hFAP tumor, previously reported) is listed as 12.5 ± 2.00 %ID/g.
